In general, IC50 refers to the concentration that inhibits the measured activity by half.

Like-named read-outs stand apart in the source and are kept apart here. Bridge positions count the residues as written; N and C are the ends. Square brackets hold non-standard residues; d marks the D form. Peptide text beside a SMILES is read from it. Lys(iPr) = CC(C)NCCCC[C@H](N)C(=O)O; Orn(iPr) = CC(C)NCCC[C@H](N)C(=O)O

In series [1] the target is T1, CXCR4 receptor (Homo sapiens, UniProt P61073).
T1 construct: Namalwa cells (CXCR4 natively expressing non-adherent cells, ATCC CRL-1432); host or cells: Namalwa cells
T1 sequence (P61073 whole entry): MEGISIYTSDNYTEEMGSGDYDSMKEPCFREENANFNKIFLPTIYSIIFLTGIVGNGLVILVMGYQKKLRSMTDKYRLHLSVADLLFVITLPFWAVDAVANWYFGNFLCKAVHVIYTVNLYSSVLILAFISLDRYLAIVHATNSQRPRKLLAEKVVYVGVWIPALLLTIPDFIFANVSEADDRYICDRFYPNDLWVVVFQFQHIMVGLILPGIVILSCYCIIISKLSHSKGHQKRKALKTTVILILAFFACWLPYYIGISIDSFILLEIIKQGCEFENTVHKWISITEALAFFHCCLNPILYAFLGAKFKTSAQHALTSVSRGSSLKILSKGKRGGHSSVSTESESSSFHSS
The series can be described thus: Chemotactic assay (cell migration assay): response of Namalwa cells to an SDF-1 gradient. Format: cell-based. The procedure: Namalwa cells (CXCR4 natively expressing non-adherent cells, ATCC CRL-1432) were cultured in RPMI1640 plus 10% FBS, and pen/strept. HELA cells were maintained in RPMI1640 plus 10% FBS, pen/strept and 2 mM L-glutamine. Cos-7 cells were grown in DMEM medium with […] glucose supplemented with 10% FCS, pen/strept and 2 mM L-glutamine. All cell lines were grown at 37 °C at 5% CO2. Cell media, media supplements, PBS-buffer, HEPES, antibiotic/antimycotic, pen/strept, non essential amino acid, L-glutamine, β-mercaptoethanol and sera were purchased from Gibco (Pailsey, UK). All fine chemicals were supplied by Merck (Darmstadt, Germany).
The chemotactic response of Namalwa cells (ATCC CRL-1432) to a gradient of stromal cell-derived factor 1α (SDF-1) was measured using a modified Boyden chamber chemotaxis system (ChemoTx; Neuroprobe). In this system, the upper chamber of each well is separated from the lower chamber containing the chemoattractant SDF-1 by a polycarbonate membrane (5µm pore size). A circular area of that membrane in the region that covers each lower well is enclosed by a hydrophobic mask to retain the cell suspension within this area. The system was prepared by loading the bottom wells with aliquots of […] chemotaxis medium (RPMI 1640 without Phenol red + 0.5% BSA) comprising either appropriate serial dilutions of peptides or no peptide at all in combination with SDF-1 (0.9 nM) or without the chemoattractant. The membrane was placed over the bottom wells, and aliquots of 50 µL of a suspension of Namalwa cells (3.6 x 10^6 cells/mL) in chemotaxis medium, premixed with chemotaxis medium comprising either appropriate serial dilutions of peptides or no peptide at all, was delivered onto each of the hydrophobically limited regions of the upper surface of the membrane. The cells were allowed to migrate into the bottom chamber for 5 h at 37 °C in 5% CO2. After this period, the membrane was removed and its topside was carefully wiped and washed with PBS to eliminate non-migrated cells. Migrated cells were transferred using a "funnel" adaptor to a receiving 96-well plate and the cell number was determined by using the CyQuant™ NF cell proliferation assay (Invitrogen) based on the measurement of cellular DNA content via fluorescent dye binding. Following the manufacturer's directions, 50 µL of CyQuant™ dye reagent/HBSS buffer (1/500 [v/v]) were added to each well of the above mentioned receiving 96-well plate. After incubation for 0.5 h at room temperature the plate was sealed and the fluorescence intensity of each sample was measured by using a Wallac 1420 VICTOR^2™ plate reader (PerkinElmer) with excitation at 485 nm and emission detection at 535 nm. Finally, the data were normalized by using the controls and IC50-values were determined using GraphPad Prism™ (GraphPad) by fitting a logarithmic curve to the averaged datapoints.

The subject of series [2] is human red blood cells (hRBC). The series can be described thus: Hemolysis. Format: cell-based. The procedure:
The peptides were tested for their hemolytic activity against human red blood cells (hRBC). Fresh hRBC were washed four times with phosphate buffered saline (PBS) and centrifuged for 10 min at 3000 x g. Compounds (100 µM) were incubated with 20% hRBC (v/v) for 1 h at 37°C and shaking at 300 rpm. The final erythrocyte concentration was approximately 0.9 x 10^9 cells/mL. A value of 0% and 100% cell lysis, respectively, was determined by incubation of hRBC in the presence of PBS containing 0.001% acetic acid and 2.5% Triton X-100 in H2O respectively. The samples were centrifuged, the supernatants were 8-fold diluted in PBS buffer and the optical densities (OD) were measured at 540 nm. The 100% lyses value (OD540H2O) gave an OD540 of approximately 0.5-1.0. Percent hemolysis was calculated as follows: (OD540peptide/OD540H2O) x 100%. [formula]

The nature of series [3]: Plasma stability, human plasma. The format is in vitro ADME. The method, then:
The stability of the peptides in human and mouse plasma was determined by applying the following method: 346.5 µL/deep well of freshly thawed human plasma (Basler Blutspende-dienst) and mouse plasma (Harlan Sera-Lab, UK), respectively, were spiked with 3.5 µL/well of compound dissolved in DMSO/H2O (90/10 [v/v], 1 mM, triplicate) and incubated at 37° C. At t = 0, 15, 30, 60, 120, 240 and 1440 min aliquots of 50 µL were transferred to filtration plate wells containing 150 µL/well of 2% formic acid in acetonitrile. Following shaking for 2 min the occurred suspensions were filtrated by vacuum. 100 µL of each filtrate were transferred to a propylene microtiter plate and dried under N2. The residual solids were reconstituted by adding 100 µL/well of water/acetonitrile, 95/5 (v/v) + 0.2% formic acid and analyzed by LC/MS as follows: Column: Waters, XBridge C18, mobile phases: (A) water + 0.1% formic acid and (B) acetonitrile/water, 95/5 (v/v) + 0.1% formic acid, gradient: 5%-100% (B) in 1.8 minutes, electrospray ionization, MRM detection (triple quadrupole). The peak areas were determined and triplicate values are averaged. The stability is expressed in percent of the initial value at t = 0. (tx/t0 x 100). By using the TREND function of EXCEL (Microsoft Office 2003) T1/2 were determined.

Series [4] in a line: Plasma protein binding (ultrafiltration). The format is in vitro ADME, human. The method, then:
495 µL aliquots of human plasma (Basler Blutspendedienst) as well as 495 µL aliquots of PBS were placed in individual deepwells of a polypropylene plate (Greiner) and spiked each with 5 µL of 1 mM solutions of peptides in 90% DMSO. After shaking the plate for 2 min at 600 rpm 150 µL aliquots of the plasma/peptide mixtures were transferred in triplicates to the polypropylene filter plate (10 kDa, Millipore) whereas 150 µL aliquots of the PBS/peptide mixtures were transferred either to the individual wells of the filter plate (filtered controls) or directly into the individual wells of the receiving plate (Greiner) (non-filtered controls). The plate sandwich consisting of filter and receiving plate was incubated for 1 h at 37°C and subsequently centrifuged at 3220 g for 2h at 15 °C. The filtrates in the receiving plate were analysed by LC/MS as follows: Column: Waters, XBridge C18, mobile phases: (A) water + 0.1% formic acid and (B) acetonitrile/water, 95/5 (v/v) + 0.1% formic acid, gradient: 5%-100% (B) in 1.8 min, electrospray ionization, MRM detection (triple quadrupole). The peak areas were determined and triplicate values are averaged. The binding is expressed in percent of the filtered and non-filtered controls by 100-(100x T1h/Tctr). Finally the average of these values is calculated.

Where [5] appears, read: Namalwa cells, SDF-1 0.9 nM, migration 5 h, read-out: IC50 [nM] ± SD, CXCR4 receptor.

For `COc1ccc(C[C@@H]2NC(=O)[C@H](Cc3c[nH]cn3)NC(=O)[C@H](Cc3ccc(O)cc3)NC(=O)[C@@H]3CCCN3C(=O)[C@H]3CCCN3C(=O)[C@H](CCCCNC(C)C)NC(=O)[C@H](CCC(N)=O)NC(=O)[C@H](Cc3ccc(O)cc3)NC(=O)[C@@H]3CSSC[C@H](NC2=O)C(=O)N[C@@H](CO)C(=O)N[C@@H](C)C(=O)N[C@H](Cc2ccc(OC)cc2)C(=O)N[C@@H](CCCNC(C)C)C(=O)N[C@@H](CCCNC(=N)N)C(=O)N[C@@H](Cc2ccc(O)cc2)C(=O)N3)cc1` [Ex. 6, cyclo(-Tyr^1-His^2-Tyr(Me)^3-Cys^4-Ser^5-Ala^6-^DTyr(Me)^7-Orn(iPr)^8-Arg^9-Tyr^10-Cys^11-Tyr^12-Gln^13-Lys(iPr)^14-^DPro^15-Pro^16-), disulfide bond between Cys^4 and Cys^11] (cyclo(YHY(Me)CSA[dY](Me)[Orn(iPr)]RYCYQ[Lys(iPr)][dP]P); disulfide 4-11), the IC50 in series [1] came out at 0.09 ± 0.09 nM. Also, in series [2] (100 µM, 20% hRBC, 1 h at 37°C), the “Hemolysis at 100 µM” value amounted to 2%. Also, the “Plasma stability human pl. T1/2” value in series [3] (human plasma, 37° C, last time point 1440 min) worked out at 24 h.

`COc1ccc(C[C@@H]2NC(=O)[C@H](Cc3c[nH]cn3)NC(=O)[C@H](Cc3ccc(O)cc3)NC(=O)[C@@H]3CCCN3C(=O)[C@H]3CCCN3C(=O)[C@H](CCCCNC(C)C)NC(=O)[C@H](CCC(N)=O)NC(=O)[C@H](Cc3ccc(O)cc3)NC(=O)[C@@H]3CSSC[C@H](NC2=O)C(=O)N[C@@H](CO)C(=O)N[C@@H](C)C(=O)N2CCC[C@@H]2C(=O)N[C@@H](CCCNC(C)C)C(=O)N[C@@H](CCCNC(=N)N)C(=O)N[C@@H](Cc2ccc(O)cc2)C(=O)N3)cc1` [Ex. 2, cyclo(-Tyr^1-His^2-Tyr(Me)^3-Cys^4-Ser^5-Ala^6-^DPro^7-Orn(iPr)^8-Arg^9-Tyr^10-Cys^11-Tyr^12-Gln^13-Lys(iPr)^14-^DPro^15-Pro^16-), disulfide bond between Cys^4 and Cys^11] (cyclo(YHY(Me)CSA[dP][Orn(iPr)]RYCYQ[Lys(iPr)][dP]P); disulfide 4-11): in series [1] (setting [5]), the IC50 was found to be 0.69 ± 0.43 nM. For the same compound, the Plasma protein binding in series [4] stood at 48%. In series [2] (red cells of human, 1 h, 100), the “Hemolysis at 100 µM” value came out at 1.0%. In addition, in series [3], the “Plasma stability human pl. T1/2” value turned out to be 24 h and the “Plasma stability human pl. cpd left at 1440 min” value came to 100%.

Consider `CC(C)NCCCC[C@@H]1NC(=O)[C@H](CCC(N)=O)NC(=O)[C@H](Cc2ccc(O)cc2)NC(=O)[C@@H]2CSSC[C@H](NC(=O)[C@H](Cc3ccc(O)cc3)NC(=O)[C@H](Cc3c[nH]cn3)NC(=O)[C@H](Cc3ccc(O)cc3)NC(=O)[C@@H]3CCCN3C(=O)[C@H]3CCCN3C1=O)C(=O)N[C@@H](CO)C(=O)N[C@@H](C)C(=O)N1CCC[C@@H]1C(=O)N[C@@H](CCCNC(C)C)C(=O)N[C@@H](CCCNC(=N)N)C(=O)N[C@@H](Cc1ccc(O)cc1)C(=O)N2` [Ex. 1, cyclo(-Tyr^1-His^2-Tyr^3-Cys^4-Ser^5-Ala^6-^DPro^7-Orn(iPr)^8-Arg^9-Tyr^10-Cys^11-Tyr^12-Gln^13-Lys(iPr)^14-^DPro^15-Pro^16-), disulfide bond between Cys^4 and Cys^11] (cyclo(YHYCSA[dP][Orn(iPr)]RYCYQ[Lys(iPr)][dP]P); disulfide 4-11), for which the IC50 in series [1] (setting [5]) was 0.42 ± 0.1 nM. For the same compound, in series [4], the Plasma protein binding was 30%. In addition, the “Hemolysis at 100 µM” value in series [2] (red cells of human, 1 h, 100) is recorded as 1.0%. Further, in series [3], the “Plasma stability human pl. T1/2” value came to 24 h and the “Plasma stability human pl. cpd left at 1440 min” value is reported as 77%.

In the case of `COc1ccc(C[C@H]2NC(=O)[C@H](C)NC(=O)[C@H](CO)NC(=O)[C@@H]3CSSC[C@H](NC(=O)[C@H](Cc4ccc(O)cc4)NC(=O)[C@H](CCCNC(=N)N)NC(=O)[C@H](CCCNC(C)C)NC2=O)C(=O)N[C@@H](Cc2ccc(O)cc2)C(=O)N[C@@H](CCC(N)=O)C(=O)N[C@@H](CCCCNC(C)C)C(=O)N2CCC[C@@H]2C(=O)N2CCC[C@H]2C(=O)N[C@@H](Cc2ccc(O)cc2)C(=O)N[C@@H](Cc2c[nH]cn2)C(=O)N[C@@H](C)C(=O)N3)cc1` [Ex. 4, cyclo(-Tyr^1-His^2-Ala^3-Cys^4-Ser^5-Ala^6-^DTyr(Me)^7-Orn(iPr)^8-Arg^9-Tyr^10-Cys^11-Tyr^12-Gln^13-Lys(iPr)^14-^DPro^15-Pro^16-), disulfide bond between Cys^4 and Cys^11] (cyclo(YHACSA[dY](Me)[Orn(iPr)]RYCYQ[Lys(iPr)][dP]P); disulfide 4-11), in series [1] (setting [5]), the IC50 is 0.18 ± 0.09 nM. The same compound gave a Plasma protein binding in series [4] of 56%. Further, the “Hemolysis at 100 µM” value in series [2] (red cells of human, 1 h, 100) worked out at 0%. Further, in series [3], the “Plasma stability human pl. T1/2” value worked out at 24 h and the “Plasma stability human pl. cpd left at 1440 min” value is reported as 94%.

For the origin of these results see patent publication EP2718307B1, “BETA-HAIRPIN PEPTIDOMIMETICS AS CXC4 ANTAGONISTS” (Polyphor AG, priority 2011, dated 2012).
